# Tested on: patients with advanced solid tumors
# Experiment: Treatment-related adverse events (CTCAE v5.0), phase I dose escalation
# Format: in vivo
# From the text: This study was a single‐arm, dose‐escalation phase I trial conducted in Sun Yat‐sen University Cancer Center in China. This study assessed CVL218 in patients with histologically or cytologically confirmed advanced solid tumors who were in PD after standard therapeutic regimens or lacked standard treatment options. Inclusion criteria included: age 18–75 years; with at least one measurable and evaluable target lesion per Response Evaluation Criteria in Solid Tumors 1.1 (RECIST 1.1); ECOG performance status of 0 or 1; adequate hematological, renal, cardiac, and hepatic functions and a life expectancy ≥12 weeks. Key exclusion criteria included prior usage of PARP inhibitors; allergic to the research drug or its components; with active, unstable systemic diseases or active, uncontrolled infection; a history of other malignancies within 5 years, and pregnant or lactating women.
# CVL218 was administered orally, and this dose‐escalation trial included nine dose levels: 100 mg QD (50 mg BID), 200 mg QD (100 mg BID), 400 mg QD (200 mg BID), 700 mg QD (350 mg BID), 1000 mg QD (500 mg BID), 1200 mg QD (600 mg BID), 1400 mg QD (700 mg BID), 1700 mg QD (850 mg BID), and 2000 mg QD (1000 mg BID). Patients enrolled in the study received a single oral dose on the first day, followed by continuous multiple dosing (twice a day taking 12 h apart) after 72 h, with the treatment cycle lasting 4 weeks. The period during which patients received a single dose is designated as cycle 0 (C0), lasting 72 h. After this period, patients begin multiple dosing, referred to as cycle 1 (C1). An initial accelerated titration design was employed for the three lowest dose groups, and the “3+3” design was applied starting with the 300 mg BID cohort.
# The primary objectives were to assess safety and tolerability as well as to determine the MTD, DLT, and dose recommended for further study. DLT was defined as any of the following events occurring during cycle 0 (including 72 h wash‐out period after a single dose) and cycle 1 per Common Terminology Criteria for Adverse Events (CTCAE) version 5.0: grade 4 anemia; grade 4 neutropenia; grade 3 neutropenia with fever ≥38.5°C; grade 4 thrombocytopenia; grade 3 thrombocytopenia associated with bleeding; grade ≥2 neurotoxicity; any other grade ≥3 nonhematological toxicities (excluding alopecia). The secondary objectives were to assess the PK and preliminary efficacy of CVL218.
# Subjects who received at least one dose of CVL218 with postadministration safety records were included in safety analysis set. Subjects who received at least one dose of CVL218 with at least one evaluable PK parameter were included in PK analysis set. Per‐protocol set were used for efficacy analysis. Descriptive statistics of safety were presented per CTCAE v5.0. The PK parameters T max and T 1/2 were shown as the median (min, max) and mean ± SD, respectively. A two‐sided p < 0.05 was considered to indicate statistical significance. Statistical analysis was performed by using GraphPad prism 8.0.2 and R‐4.3.3.
structure (smiles),measurement,setting,value
CNCc1ccc(-c2cc3cc(F)cc(C(N)=O)c3o2)cc1.Cl [CVL218],Infusion site pain,"50 mg BID, ALL",0 n (%)
same,WBC count increased,"50 mg BID, ALL",0 n (%)
same,ALT increased,"50 mg BID, ≥G3",0 n (%)
same,AST increased,"50 mg BID, ≥G3",0 n (%)
same,Abdominal distension,"50 mg BID, ≥G3",0 n (%)
same,Abdominal pain,"50 mg BID, ≥G3",0 n (%)
same,Abdominal pain upper,"50 mg BID, ≥G3",0 n (%)
same,Amylase increased,"50 mg BID, ≥G3",0 n (%)
same,Anemia,"50 mg BID, ≥G3",0 n (%)
same,Any AE related to study drug,"50 mg BID, ≥G3",0 n (%)
same,Asthenia,"50 mg BID, ≥G3",0 n (%)
same,Blood creatinine increased,"50 mg BID, ≥G3",0 n (%)
same,Blood system disorders,"50 mg BID, ≥G3",0 n (%)
same,Blood triglycerides increased,"50 mg BID, ≥G3",0 n (%)
same,Blood urea increased,"50 mg BID, ≥G3",0 n (%)
same,Cardiac disorders,"50 mg BID, ≥G3",0 n (%)
same,Chest discomfort,"50 mg BID, ≥G3",0 n (%)
same,Constipation,"50 mg BID, ≥G3",0 n (%)
same,Decreased appetite,"50 mg BID, ≥G3",0 n (%)
same,Diarrhea,"50 mg BID, ≥G3",0 n (%)
same,Dizziness,"50 mg BID, ≥G3",0 n (%)
same,Erectile dysfunction,"50 mg BID, ≥G3",0 n (%)
same,Gastrointestinal disorders,"50 mg BID, ≥G3",0 n (%)
same,General disorders,"50 mg BID, ≥G3",0 n (%)
same,Gingival bleeding,"50 mg BID, ≥G3",0 n (%)
same,Granulocyte count increased,"50 mg BID, ≥G3",0 n (%)
same,Headache,"50 mg BID, ≥G3",0 n (%)
same,Hypoalbuminemia,"50 mg BID, ≥G3",0 n (%)
same,Infusion site pain,"50 mg BID, ≥G3",0 n (%)
same,Laboratory test disorders,"50 mg BID, ≥G3",0 n (%)
same,Limb discomfort,"50 mg BID, ≥G3",0 n (%)
same,Lipase increased,"50 mg BID, ≥G3",0 n (%)
same,Metabolic disorders,"50 mg BID, ≥G3",0 n (%)
same,Musculoskeletal discomfort,"50 mg BID, ≥G3",0 n (%)
same,Musculoskeletal disorders,"50 mg BID, ≥G3",0 n (%)
same,Nausea,"50 mg BID, ≥G3",0 n (%)
same,Nervous system disorders,"50 mg BID, ≥G3",0 n (%)
same,Neutrophil count decreased,"50 mg BID, ≥G3",0 n (%)
same,Neutrophil count increased,"50 mg BID, ≥G3",0 n (%)
same,Palpitations,"50 mg BID, ≥G3",0 n (%)
same,Protein urine present,"50 mg BID, ≥G3",0 n (%)
same,Proteinuria,"50 mg BID, ≥G3",0 n (%)
same,Rash,"50 mg BID, ≥G3",0 n (%)
same,Renal & urinary disorders,"50 mg BID, ≥G3",0 n (%)
same,Renal failure,"50 mg BID, ≥G3",0 n (%)
same,Reproductive disorders,"50 mg BID, ≥G3",0 n (%)
same,Skin disorders,"50 mg BID, ≥G3",0 n (%)
same,Urinary occult blood positive,"50 mg BID, ≥G3",0 n (%)
same,Vomiting,"50 mg BID, ≥G3",0 n (%)
same,WBC count decreased,"50 mg BID, ≥G3",0 n (%)
same,WBC count increased,"50 mg BID, ≥G3",0 n (%)
same,Infusion site pain,"100 mg BID, ALL",0 n (%)
same,WBC count increased,"100 mg BID, ALL",0 n (%)
same,ALT increased,"100 mg BID, ≥G3",0 n (%)
same,AST increased,"100 mg BID, ≥G3",0 n (%)
same,Abdominal distension,"100 mg BID, ≥G3",0 n (%)
same,Abdominal pain,"100 mg BID, ≥G3",0 n (%)
same,Abdominal pain upper,"100 mg BID, ≥G3",0 n (%)
same,Amylase increased,"100 mg BID, ≥G3",0 n (%)
same,Anemia,"100 mg BID, ≥G3",0 n (%)
same,Any AE related to study drug,"100 mg BID, ≥G3",0 n (%)
same,Asthenia,"100 mg BID, ≥G3",0 n (%)
same,Blood creatinine increased,"100 mg BID, ≥G3",0 n (%)
same,Blood system disorders,"100 mg BID, ≥G3",0 n (%)
same,Blood triglycerides increased,"100 mg BID, ≥G3",0 n (%)
same,Blood urea increased,"100 mg BID, ≥G3",0 n (%)
same,Cardiac disorders,"100 mg BID, ≥G3",0 n (%)
same,Chest discomfort,"100 mg BID, ≥G3",0 n (%)
same,Constipation,"100 mg BID, ≥G3",0 n (%)
same,Decreased appetite,"100 mg BID, ≥G3",0 n (%)
same,Diarrhea,"100 mg BID, ≥G3",0 n (%)
same,Dizziness,"100 mg BID, ≥G3",0 n (%)
same,Erectile dysfunction,"100 mg BID, ≥G3",0 n (%)
same,Gastrointestinal disorders,"100 mg BID, ≥G3",0 n (%)
same,General disorders,"100 mg BID, ≥G3",0 n (%)
same,Gingival bleeding,"100 mg BID, ≥G3",0 n (%)
same,Granulocyte count increased,"100 mg BID, ≥G3",0 n (%)
same,Headache,"100 mg BID, ≥G3",0 n (%)
same,Hypoalbuminemia,"100 mg BID, ≥G3",0 n (%)
same,Infusion site pain,"100 mg BID, ≥G3",0 n (%)
same,Laboratory test disorders,"100 mg BID, ≥G3",0 n (%)
same,Limb discomfort,"100 mg BID, ≥G3",0 n (%)
same,Lipase increased,"100 mg BID, ≥G3",0 n (%)
same,Metabolic disorders,"100 mg BID, ≥G3",0 n (%)
same,Musculoskeletal discomfort,"100 mg BID, ≥G3",0 n (%)
same,Musculoskeletal disorders,"100 mg BID, ≥G3",0 n (%)
same,Nausea,"100 mg BID, ≥G3",0 n (%)
same,Nervous system disorders,"100 mg BID, ≥G3",0 n (%)
same,Neutrophil count decreased,"100 mg BID, ≥G3",0 n (%)
same,Neutrophil count increased,"100 mg BID, ≥G3",0 n (%)
same,Palpitations,"100 mg BID, ≥G3",0 n (%)
same,Protein urine present,"100 mg BID, ≥G3",0 n (%)
same,Proteinuria,"100 mg BID, ≥G3",0 n (%)
same,Rash,"100 mg BID, ≥G3",0 n (%)
same,Renal & urinary disorders,"100 mg BID, ≥G3",0 n (%)
same,Renal failure,"100 mg BID, ≥G3",0 n (%)
same,Reproductive disorders,"100 mg BID, ≥G3",0 n (%)
same,Skin disorders,"100 mg BID, ≥G3",0 n (%)
same,Urinary occult blood positive,"100 mg BID, ≥G3",0 n (%)
same,Vomiting,"100 mg BID, ≥G3",0 n (%)
same,WBC count decreased,"100 mg BID, ≥G3",0 n (%)
same,WBC count increased,"100 mg BID, ≥G3",0 n (%)
same,Infusion site pain,"200 mg BID, ALL",1 (100) n (%)
same,WBC count increased,"200 mg BID, ALL",0 n (%)
same,ALT increased,"200 mg BID, ≥G3",0 n (%)
same,AST increased,"200 mg BID, ≥G3",0 n (%)
same,Abdominal distension,"200 mg BID, ≥G3",0 n (%)
same,Abdominal pain,"200 mg BID, ≥G3",0 n (%)
same,Abdominal pain upper,"200 mg BID, ≥G3",0 n (%)
same,Amylase increased,"200 mg BID, ≥G3",0 n (%)
same,Anemia,"200 mg BID, ≥G3",0 n (%)
same,Any AE related to study drug,"200 mg BID, ≥G3",0 n (%)
same,Asthenia,"200 mg BID, ≥G3",0 n (%)
same,Blood creatinine increased,"200 mg BID, ≥G3",0 n (%)
same,Blood system disorders,"200 mg BID, ≥G3",0 n (%)
same,Blood triglycerides increased,"200 mg BID, ≥G3",0 n (%)
same,Blood urea increased,"200 mg BID, ≥G3",0 n (%)
same,Cardiac disorders,"200 mg BID, ≥G3",0 n (%)
same,Chest discomfort,"200 mg BID, ≥G3",0 n (%)
same,Constipation,"200 mg BID, ≥G3",0 n (%)
same,Decreased appetite,"200 mg BID, ≥G3",0 n (%)
same,Diarrhea,"200 mg BID, ≥G3",0 n (%)
same,Dizziness,"200 mg BID, ≥G3",0 n (%)
same,Erectile dysfunction,"200 mg BID, ≥G3",0 n (%)
same,Gastrointestinal disorders,"200 mg BID, ≥G3",0 n (%)
same,General disorders,"200 mg BID, ≥G3",0 n (%)
same,Gingival bleeding,"200 mg BID, ≥G3",0 n (%)
same,Granulocyte count increased,"200 mg BID, ≥G3",0 n (%)

# Reference: publication PMC12238723, “Phase I Clinical Trial of CVL218, a Novel PARP1/2 Inhibitor, in Patients with Advanced Solid Tumors” (MedComm, 2025)
